# From paper PMC12040169 (PLOS Biology, 2025)
# Assay: in vitro
# Details: human, hela cells, % viability
SMILES,"viability at 28.5 h, 10 µM [%]","viability at 28.5 h, 10 µM (bulk resorufin, single well) [%]"
Cc1cc2nc(C(=O)NCCCn3ccnc3C(C)C)cc(C)n2n1 [CBK307022],90.5,–
Cc1cc(NC(=O)CN2CCC(CSc3ccccc3)C2)no1 (stereo not shown) [CBK306136],92.4,–
COc1ccccc1N1CCN(CCCCNC(=O)c2ccc(Cl)cc2)CC1 [CBK074835],93,–
C(#Cc1cccc(-c2nc3ccccc3nc2-c2cccc(C#Cc3ccc(Sc4ccccc4)cc3)c2)c1)c1ccc(Sc2ccccc2)cc1 [CBK261158],93.2,–
CNC(=O)C1(Cc2ccc(-c3ccccc3)cc2)CCN(C(=O)c2ccccc2)CC1 [CBK285761],96.5,–
Cc1cc2cc(C(F)(F)F)nc-2n(CC(=O)NC2CC2)c1 [CBK282888],106,–
CCn1c2cc(C)sc2c2cnn(CC(=O)N(C)C)c(=O)c21 [CBK284173],85,–
COCCOc1ccc(C(=O)N2CCN(c3ccccc3)CC2)cc1 [CBK304626],106,–
CC(C)Cn1cnc(S(=O)(=O)N2CCC(Cc3ccccc3)CC2)c1 [CBK306273],92.3,–
Cc1cc(C)c(COc2nccnc2OC2CCN(CCCC#N)CC2)c(C)c1 [CBK161575],91.6,–
CC(=O)Nc1cccc(-c2nccnc2N[C@H](CO)C(C)C)c1 [CBK036611],97,–
CCCC/C=C/c1cnc2[nH]c(=O)n(CC(C)C)c2n1 [CBK064225],96.4,–
O=C(/C=C/c1ccc2c(c1)OCO2)NCCSc1ccccn1 [CBK264012],97.7,–
Cc1nc(C)c(CCC(=O)NC2CCSc3c(F)cccc32)c(=O)[nH]1 (stereo not shown) [CBK295601],95.2,–
CN1CCN(C(=O)c2ccsc2NS(=O)(=O)/C=C/c2ccccc2)CC1 [CBK042267],104,–
COc1ccccc1-c1nccnc1OCc1ccccc1 [CBK106817],108,–
O=C(Cc1cccc2ccccc12)Nc1ccc2oc(-c3ccccc3)nc2c1 [CBK266286],96.3,–
Clc1ccc(OCc2nnn[nH]2)c(C2CCCCC2)c1 [CBK270035],103,–
c1ccc2c(CN3CCCNCC3)cccc2c1 [CBK028773],81,–
Cc1ccc(-n2c3nc(=O)n(C)c(=O)c-3cc3ccccc32)cc1 [CBK288007],103,–
O=C(NCc1ccccc1)c1ccc(CN2CCC(Cc3ccccc3)CC2)cc1 [CBK263432],87.5,–
CSc1nc2ccccc2c2nc(-c3ccncc3)nn12 [CBK288566],99.7,–

SMILES,"viability at 28.5 h, 10 µM [%]","viability at 28.5 h, 10 µM (bulk resorufin, single well) [%]"
COc1cc(-c2cncc(NCc3ccncc3)n2)cc(OC)c1OC [CBK065263],98.9,–
CCOC(=O)c1c(NS(=O)(=O)c2cc(Cl)sc2Cl)sc2c1CCCC2 [CBK050397],96.1,–
CCn1cc(C(=O)O)c(=O)c2cnc(N3CCNCC3)nc21 [CBK041585],90.8,–
OCCn1ncc2c(SC3CCCCC3)ncnc21 [CBK269358],87.8,–
COc1ccc(-n2c(C)c([N+](=O)[O-])c3ccc(O)c(CNCCCO)c32)cc1 [CBK263504C],88.4,–
CCOC(=O)c1cnn(C2CCCN(Cc3cc[nH]n3)C2)c1 (stereo not shown) [CBK305125],87.4,–
c1cncc(CNc2nc(-c3cccs3)cn3ccnc23)c1 [CBK066687],104,–
COc1ccc(Cl)cc1S(=O)(=O)N1CCC(C(=O)NCc2cccnc2)CC1 [CBK269878],93.4,–
CN(c1ccccc1C(N)=O)S(=O)(=O)c1ccc(S(=O)(=O)C(F)F)cc1 [CBK298289],88.3,–
COc1ccc(CCN2CNc3c(c(=O)n(C)c(=O)n3C)C2)cc1OC [CBK074818],86,–
Cc1cccc(/C(C#N)=C\c2cn(CC(=O)O)c3ccccc23)c1 [CBK269457],110,–
CCn1c(=O)n(CC(=O)Nc2ccccc2F)c2cccnc21 [CBK283897],102,–
CCN(CC)CC(C)C(O)(c1ccccc1)c1ccccc1 (stereo not shown) [CBK012065C],95,–
CC(C)S(=O)(=O)n1ccn(-c2cccc(C(F)(F)F)c2)c1=O [CBK106577],88,–
O=C(COC(=O)CN1C(=O)C(=O)c2ccccc21)Nc1cccc2ccccc12 [CBK263915],90.5,–
Cc1nc(N(C)C)ncc1C(=O)NCCSc1nnnn1C [CBK306673],93.1,–
O=[N+]([O-])c1ccc(S(=O)(=O)N2CCC3(CC2)OCCO3)cc1 [CBK269303],97.5,–
O=C(NCC1CCCN1)c1cc(C(=O)c2ccc(Cl)cc2Cl)c[nH]1 (stereo not shown) [CBK115923C],86.1,–
CO/N=C\c1c(CO)cnc(C)c1O [CBK022776],98.4,–
O=S1(=O)CC(NCc2ccccc2)C(Nc2ccccc2)C1 (stereo not shown) [CBK265797],91.7,–
Clc1ccc(COc2cccc(CNCCN3CCOCC3)c2)cc1 [CBK278227C],85,–
CN1CCCN(Cc2cccc3ccccc23)CC1 [CBK261531],96.4,–

SMILES,"viability at 28.5 h, 10 µM [%]","viability at 28.5 h, 10 µM (bulk resorufin, single well) [%]"
COCCCOc1cc(N2CCCC2)ncn1 [CBK115896],102,–
CCn1c(C)nn(-c2nc3c(Cl)cccc3s2)c1=O [CBK026010],100,–
COc1cc(C(=O)N2CCC(N3C(=O)Cc4ccccc43)CC2)ccc1C [CBK155465],–,84.2
CC(C)n1c(=O)[nH]c2ccncc2c1=O [CBK015763],88.8,–
O=C(CN1CCN(CCN2C(=O)c3cccc4cccc(c34)C2=O)CC1)c1ccc(Cl)cc1 [CBK265363],78.1,–
COCc1cn([C@H]2CO[C@H]3[C@@H]2OC[C@@H]3NC(=O)c2ccc(OC)cc2)nn1 [CBK289494],115,–
CC(=O)NCCSc1nc2ccccc2nc1C(F)(F)F [CBK105303],89.6,–
CCCCOc1ccc(OC(=O)C2CCN(CCCC)CC2)cc1 [CBK122680],112,–
O=C1N[C@H]2CCCN(C(=O)c3cncs3)[C@H]2CCCCCOc2ccccc21 [CBK292106],98.2,–
CS(=O)(=O)c1ccc(Cn2ccnc(N3CCN(C(=O)C4CCCCC4)CC3)c2=O)cc1 [CBK153771],90.3,–
Cc1ccc(S(N)(=O)=O)cc1NC(=O)c1ccc(Br)o1 [CBK003693],91.6,–
N#Cc1c(F)cccc1N1CCCC(C(=O)Nc2nncs2)C1 (stereo not shown) [CBK306335],96.8,–
O=C(CN1C(=O)[C@@H]2CCCN2c2ncccc21)NC(c1ccccc1)c1ccccc1 [CBK286205],121,–
Cc1cccnc1CN1CCN(C(=O)NCCSc2nncn2C)CC1 [CBK306949],89.9,–
O=C(NCc1cccnc1)C1CCC(Cn2c(=S)[nH]c3ccccc3c2=O)CC1 (stereo not shown) [CBK266678],87.9,–
O=C1c2cccc3cccc(c23)C(=O)N1CCCSc1nnc(-c2ccncc2)n1-c1ccccc1 [CBK268684],91,–
FC(F)(F)Oc1ccc(-c2cncc(N3CCN(c4ccncc4)CC3)n2)cc1 [CBK059230C],88.9,–
CC(=O)c1sccc1NS(=O)(=O)c1ccc2ccccc2c1 [CBK200042],89.5,–
O=C(Nc1ccccc1)c1ccccc1OCc1ccc(S(=O)(=O)N2CCOCC2)cc1 [CBK267396],92.8,–
Cc1ccc(/C=C/C(=O)O)cc1S(=O)(=O)N(CCO)CCO [CBK264840],99,–
Cc1ccc(S(=O)(=O)/N=C(\Nc2nc3ccccc3o2)NS(=O)(=O)c2ccc(C)cc2)cc1 [CBK266728],86,–
COc1cccc(NC(=O)C2C(C(=O)O)C3C=CC2C32CC2)c1 (stereo not shown) [CBK287106],81.6,–

SMILES,"viability at 28.5 h, 10 µM [%]","viability at 28.5 h, 10 µM (bulk resorufin, single well) [%]"
Cc1ccc(S(=O)(=O)NC(C(=O)O)c2ccccc2)cc1 (stereo not shown) [CBK286985],106,–
COc1ccccc1OCC(=O)N1CCC(Cn2cncn2)(C2CCCCC2)CC1 [CBK136797],91.9,–
COc1ccc(OC(=O)COc2nc3c(C)cc(C)nc3[nH]2)cc1 [CBK269290],106,–
CC(=O)OC(C(=O)O)C(OC(C)=O)C(=O)O (stereo not shown) [CBK261063],95.5,–
COC(=O)c1ccc(N2CCN(Cc3nc(C)no3)C(C)C2)cc1 (stereo not shown) [CBK305998],92.3,–
CCn1ncc(CN2CCCCCC2c2cc(C)no2)c1C (stereo not shown) [CBK283008],92.9,–
O=C(CCCOc1ccccc1)NCc1ccc(OC2CCNCC2)cc1 [CBK028427T],92.1,–
O=C(Cc1ccccc1F)NCc1nnc(-c2cccs2)o1 [CBK284632],82,–
Cc1ccc(C(=O)O)cc1NS(=O)(=O)c1ccc2c(c1)OCCO2 [CBK297497],90.7,–
O=C(Cc1ccc(F)cc1)N1CCCC(c2nccnc2-c2cccc(C(F)(F)F)c2)C1 (stereo not shown) [CBK286210],99.8,–
COc1ccc(Oc2cncc(OC3CCN(CC(=O)Nc4c(C)cccc4C)C3)n2)cc1OC (stereo not shown) [CBK084403],101,–
Cc1ccc2c(c1)CC(=O)NC21CCN(C(=O)C2CC2C(=O)O)CC1 (stereo not shown) [CBK047258],103,–
CCCC(=O)c1ccc(S(=O)(=O)N2CCCN(Cc3ccc(C#N)cc3)CC2)cc1 [CBK062895],106,–
C[C@]12C(=O)c3ccccc3NC(=O)C1[C@H]2C(=O)N1CCCCC1 (stereo partly shown) [CBK285281],92,–
Cc1cccc(C(=O)NC(=S)Nc2cccc(C(=O)O)c2)c1 [CBK264987],121,–
CC(O)CNCCCOc1ccccc1-c1ccccc1 (stereo not shown) [CBK268633G],97.6,–
O=C(Nc1ccc(O)cc1)c1ccc2c(c1)C(=O)N(c1cccc(N3C(=O)c4ccc(C(=O)Nc5ccc(O)cc5)cc4C3=O)n1)C2=O [CBK261334],102,–
CO[C@@]12CC[C@@H](OCC(=O)O)C[C@@H]1N(Cc1ccccc1C)CC2 [CBK307548],104,–
CC1CCc2c(sc3ncnc(SCC(=O)N(C)CCC#N)c23)C1 (stereo not shown) [CBK305896],106,–
CNC1CCC2(c3ccc(OC)c(OC)c3)CCN(C)C2C1 (stereo not shown) [CBK059586C],87.3,–
CC(NC(=O)c1cc2ccccc2c(=O)[nH]1)c1ccc(-c2ccccc2)cc1 (stereo not shown) [CBK297936],86.4,–
COc1ccc(N2CCN(Cc3cc([N+](=O)[O-])ccc3Cl)CC2)cc1 [CBK261571],88.9,–
